Test results reported in patent publication US12583851B2, “Heteroaryl-substituted pyrazine derivatives as pesticides” (Elanco Animal Health GmbH, priority 2019, dated 2026).

How the values were obtained:
Assay type in all cases: in vivo
[1] = tested on: larvae of the banded cucumber beetle (Diabrotica balteata); test: Diabrotica balteata spray test; settings: 168 h, after 7 days, read-out: efficacy (seedling growth); for pest or weed control at 6.4 µg/disc, 20 g/ha: 20 g/ha (=6.4 μg/well)
How it was run: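 Efficacy was read 7 days after infesting each unit with 10–20 banded cucumber beetle larvae, as % of seedlings growing like untreated, uninfested controls. Before infestation, wheat seeds germinated 1 day on agar (5 per well) were sprayed with the active ingredient. The active was formulated in acetone/DMF and diluted in water containing emulsifier.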

[2] = tested on: brown planthopper (Nilaparvata lugens); test: Nilaparvata lugens spray test; settings: 96 h, 100 g/ha, rice plants, after 4 days
Experimental: Nilaparvata lugens—Spray Test
Solvent: 78.0 parts by weight of acetone • • 1.5 parts by weight of dimethylformamide
Emulsifier: alkylarylpolyglycol ether
To produce a suitable preparation of active compound, 1 part by weight of active compound is mixed with the stated amount of solvents and is diluted with water, containing an emulsifier concentration of 1000 ppm, to the desired concentration. Further test concentrations are prepared by dilution with emulsifier containing water.
Rice plants (Oryza sativa) are sprayed with a preparation of the active ingredient of the desired concentration and the plants are infested with the brown planthopper (Nilaparvata lugens).
After 4 days mortality in % is determined. 100% means all planthoppers have been killed and 0% means none of the planthoppers have been killed.

[3] = tested on: adult Blattella germanica strain PAULINIA; test: Blattella germanica test (BLTTGE surface treatment & contact assay); settings: surface concentration 20 mg/m^2, 30 minutes exposure, 24 hours after contact, read-out: mortality (efficacy)
Experimental: Blattella germanica Test (BLTTGE Surface Treatment & Contact Assay)
Solvent: Aceton+2000 ppm rapeseed oil methyl ester (RME)
In order to produce a sufficient, active ingredient containing solution it is necessary to solve the test compound in the solvent-mix (acetone at 2 mg/ml/RME 2000 ppm). This solution is pipetted onto a glazed tile and after evaporation of the acetone, adult animals of the species Blattella germanica strain PAULINIA are placed onto the dried surface. The exposure time is 30 minutes.
Mortality in percent (%) is determined 24 hours after contact of the insects to the treated surface. 100% mortality means that all tested insects are dead, whereas 0% means that no insect died.

[4] = tested on: adult cat fleas (Ctenocephalides felis); test: Ctenocephalides felis in-vitro contact test, adult cat flea; settings: 5 μg/cm^2 (=500 g/ha), after 48 hours, read-out: efficacy (fleas dead or moribund)
How it was run: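 Acetone solution coated onto glass tube walls; 900 ppm gives 5 μg/cm². Once dry, 5–10 adult fleas per tube held at room temperature for 48 h. Efficacy (%) is the share of fleas dead or moribund, i.e. unable to climb away on a 45–50° C heating plate.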

[5] = tested on: adult brown dog ticks (Rhipicephalus sanguineus); test: Rhipicephalus sanguineus in-vitro contact test, adult brown dog ticks; settings: 48 h, 5 μg/cm^2 (=500 g/ha), after 48 hours, read-out: efficacy (ticks dead or moribund)
How it was run: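 Acetone solution coated on glass tube inner walls (900 ppm, giving 5 μg/cm^2); after drying, 5–10 adult ticks added and kept 48 h at room temperature. Efficacy scored as percent dead or moribund, i.e., ticks unable to climb away on a 45–50 °C heating plate within 5 min.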

SMILES | pest or weed control at 6.4 µg/disc, 20 g/ha [1] | mortality at 100 g/ha [2] | mortality at 20 mg/m2 [3] | pest or weed control at 5 µg/cm2, 500 g/ha [4] | pest or weed control at 5 µg/cm2, 500 g/ha [5] | pest or weed control at 32 µg/disc, 100 g/ha ([1]; 100 g/ha (=32 μg/well))
CC(NC(=O)c1cc(C(F)(F)F)cc(C(F)(F)F)c1)c1nccnc1-c1ncccn1 (racemic) [Example I-8, (rac)-N-(1-(3-(Pyrimidin-2-yl)pyrazin-2-yl)ethyl)-3,5-bis(trifluoromethyl)benzamide] | 100% | 100% | 80 to 100% | – | – | –
CC(NC(=O)c1cc(Cl)cc(C(F)(F)F)c1)c1nccnc1-c1ncccn1 (racemic) [Example I-10, (rac)-3-Chloro-N-(1-(3-(pyrimidin-2-yl)pyrazin-2-yl)ethyl)-5-(trifluoromethyl)benzamide] | 100% | – | 80 to 100% | 80% | 80% | 100%
